We go through seven molecules from US12171852B1, “Composition and methods for regulating melanogenesis” (Sytheon Ltd, priority 2023, dated 2024).

One test has as its system B16-F1 melanocytes. As to the kind of experiment: Melanin synthesis in melanocytes, melanin colorimetric competitive ELISA. It is filed as cell-based. Conditions: for % Melanin Inhibition: 200 μg/ml, water control = 100; for Melanin-inhibitory activity (in words): colorimetric quantification, ZDBL at 200 μg/ml. A general note: ELISA stands for enzyme-linked immunosorbent assay.

Test [1] deals with microphthalmia-associated transcription factor (MITF) gene expression. As to the kind of experiment: MITF gene expression, transcriptome analysis of treated EpiDermFT tissues. In kind it is cell-based. Conditions: EpiDermFT tissue, 3 μl of 100 μg/ml solution, 24 hours.
Experimental: EpiDermFT tissues were obtained from MatTek and equilibrated overnight in the cell culture incubator. […] All stock solutions were prepared at 20 mg/ml in DMSO and further dilutions were made in sterile distilled water. The proposed dosage used was based on cytotoxicity data. Water was used as the negative control. The treated tissue samples were incubated for a period of 24 hours following which RNA was extracted and prepared for transcriptome analysis for assessing the impact, if any, on the gene expression of microphthalmia-associated transcription factor (MITF). Sequencing data were generated by Azenta Life Sciences (HiSeq 2×150 bp). Analyses were performed using raw FastQ files provided by Azenta.
The next test relates to MITF gene expression. The test can be described thus: MITF gene expression validated by real-time quantitative PCR in EpiDermFT tissues. In kind it is cell-based. Conditions: versus water control. As to the method: As validation of the findings above a second analysis of the tissue samples was performed this time using cDNA prepared using High-Capacity RNA-to-cDNA™ Kit (Thermo Fisher Scientific). Expression of the applicable genes was measured by real-time quantitative PCR with the BioRad iCycler iQ Detection System using PCR primers from Realtimeprimers (Elkins Park, PA) and AzuraView GreenFast qPCR Blue Mix LR (Azura Genomics, Raynham, MA). Efficiency ΔΔCt method was used for quantification of results, after the normalization of gene expression to GAPD (a housekeeping gene).

The test system of a further test is mushroom tyrosinase. The test can be described thus: In vitro tyrosinase inhibition assay (L-DOPA conversion). It is filed as biochemical. The settings on record: for Tyrosinase enzyme activity (% of Control): 80 min, L-DOPA 5 mM; for Inhibition of tyrosinase activity (in words): particularly at the higher concentrations. As for the experimental part:
Louis, MO, catalog #K3125) was employed as the positive control/reference substance. […] [Biosci Biotechnol Biochem, 67:1587-1589, 2003]. […] The final concentration used in the assay was 16 U/well (80 U/ml). Tyrosinase substrate L-DOPA (Acros Organics, Fair Lawn, NJ) was used at 5 mM. Reactions were conducted in a 96 well format and were initiated by adding the enzyme to the reaction mix and allowed to react for 80 min. […] The increase of the melanin output was calculated using the formula: ΔM=[A450 nm(t=80 min.)+Tyrosinase]−[A450 nm(t=80 min.)−Tyrosinase] where ΔM is increase of melanin, A is absorbance for a given experimental condition, t is a time point and 450 nm is the wavelength used for the quantification of melanin and “-Tyrosinase” is the background reading of identical experimental conditions without the enzyme.

The target of the next test is NADPH Oxidase 4 (NOX-4) (Homo sapiens (Human), UniProt Q9NPH5). The test can be described thus: NADPH oxidase (NOX-4) inhibitory activity, NOX4 ELISA kit. It is filed as biochemical. As for the experimental part: A study was conducted on the direct impact of Zn di-(di-n-butyryl lysinate) (ZDBL), Ca di-(di-n-butyryl lysinate), and Na butyrate on NADPH Oxidase 4 (NOX-4) enzyme. In this study, 0.01 gram of sample was dissolved in 1 ml propanediol to make solution. For the analysis, a 1 to 2 serial dilution of the stock solution of the sample using buffer was made to determine the IC50 values. The analysis was done following NOX4 ELISA kit (My BioSource, Catalog #MBS2505108) protocol.

The target in another test is Thioredoxin reductase 1 (Homo sapiens (Human), UniProt Q16881). The test can be described thus: Thioredoxin reductase 1 (TrxR1) inhibitory activity. It is filed as biochemical. Conditions: average of two readings; 1 hour incubation at room temperature. As to the method: Thioredoxin is known to influence melanogenesis substrates [Y Lu et al., Modulating skin colour: role of thioredoxin and glutathione systems in regulating melanogenesis, Bioscience Reports, 2021; 41 BSR20210427]. […] Test materials were prepared by dissolving 0.01 gm of each test material in 1 ml ethanol to make stock solutions. […] The plate was read at 412 nm for 30 minutes to determine the inhibition.
Thioredoxin reductase 1, sequence (Q16881 151-649): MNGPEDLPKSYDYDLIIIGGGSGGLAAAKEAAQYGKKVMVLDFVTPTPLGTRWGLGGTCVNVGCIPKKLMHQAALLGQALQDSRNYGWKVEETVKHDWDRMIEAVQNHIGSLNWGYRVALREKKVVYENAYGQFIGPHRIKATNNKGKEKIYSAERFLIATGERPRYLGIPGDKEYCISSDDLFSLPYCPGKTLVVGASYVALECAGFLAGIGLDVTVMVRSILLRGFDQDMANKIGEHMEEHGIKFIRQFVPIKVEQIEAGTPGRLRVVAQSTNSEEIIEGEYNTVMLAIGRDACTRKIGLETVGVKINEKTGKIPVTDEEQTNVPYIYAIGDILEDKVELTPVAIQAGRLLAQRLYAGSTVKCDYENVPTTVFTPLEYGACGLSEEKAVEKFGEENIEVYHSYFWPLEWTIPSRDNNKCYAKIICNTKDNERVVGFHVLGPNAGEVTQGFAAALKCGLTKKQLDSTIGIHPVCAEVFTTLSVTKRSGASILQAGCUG

`NCCCC[C@H](N)C(=O)[O-].NCCCC[C@H](N)C(=O)[O-].[Zn+2]` [Zn lysinate (ZLY), Zn lysinate]: the “% Melanin Inhibition” value in the test on B16-F1 melanocytes (three days) is on record as 0%. Further, the “Melanin-inhibitory activity (in words)” value in the test on B16-F1 melanocytes is recorded as “no significant effect”. Also, the “Fold change/mean FPKM = 2.2 (MITF gene expression)” value in test [1] is listed as 0.17. In addition, the “MITF gene expression effect (in words)” value in test [1] is listed as “No effect”; in test [1] (listed as Zn lysinate), “not significantly altered”. Further, in the test with MITF gene expression, the “Comments (MITF gene expression by PCR)” value is given as “No Effect”. Besides, the results for the “Tyrosinase enzyme activity (% of Control)” value in the test on mushroom tyrosinase (10 μg/ml), in the test with mushroom tyrosinase (50 μg/ml) and in the test on mushroom tyrosinase (200 μg/ml) were 80 (p = 0.02) % of Control, 90 (p = 0.95) % of Control and 90 (p = 0.23) % of Control, respectively. In addition, the “Inhibition of tyrosinase activity (in words)” value in the test on mushroom tyrosinase is reported as “ineffective”.

As for `NCCCC[C@H](N)C(=O)O` [Lysine (LYS), Lysine], the “Fold change/mean FPKM = 2.2 (MITF gene expression)” value in test [1] turned out to be 0.38. The “MITF gene expression effect (in words)” value in test [1] is “No effect”; in test [1] (listed as lysine), “not significantly altered”.

With `CCCC(=O)[O-].[Na+]` [Na butyrate], the “IC50 value, NADPH Oxidase (NOX-4)” value at NADPH Oxidase 4 (NOX-4) amounted to 170 µg/mL.

For `O=c1cc(CO)occ1O` [Kojic acid, kojic acid], the “Tyrosinase enzyme activity (% of control), positive control” value in the test with mushroom tyrosinase (200 μM) is “*Kojic acid (200 μM) was used as a positive control: Tyrosinase enzyme activity was found to be 39% of control (p = 0.00) confirming the validation of the protocol”.

Turning to `CCCC(=O)NCCCCC(NC(=O)CCC)C(=O)[O-].CCCC(=O)NCCCCC(NC(=O)CCC)C(=O)[O-].[Ca+2]` (centres unmarked) [CDBL, calcium di-(di-n-butyryl lysinate)], the “% Melanin Inhibition” value in the test with B16-F1 melanocytes (three days) was determined as 0%. Besides, the “Melanin-inhibitory activity (in words)” value in the test with B16-F1 melanocytes is “no significant effect”. The “IC50 value, NADPH Oxidase (NOX-4)” value on NADPH Oxidase 4 (NOX-4) came out at 240 µg/mL. For the same molecule, the “IC50 value, Thioredoxin Reductase 1” value against Thioredoxin reductase 1 came out at 4.53 µg/mL. In addition, the “Fold change/mean FPKM = 2.2 (MITF gene expression)” value in test [1] turned out to be 0.41. Further, the “MITF gene expression effect (in words)” value in test [1] (listed as Ca di-(di-n-butyryl lysinate) (CDBL)) was “No effect”; in test [1] (listed as Ca di-n-butyryl lysinate), “not significantly altered”. Also, in the test with MITF gene expression, the “Comments (MITF gene expression by PCR)” value is reported as “No Effect”. The “Tyrosinase enzyme activity (% of Control)” value is reported as 85 (p = 0.10) % of Control in the test on mushroom tyrosinase (10 μg/ml), 89 (p = 0.13) % of Control in the test with mushroom tyrosinase (50 μg/ml) and 99 (p = 0.86) % of Control in the test with mushroom tyrosinase (200 μg/ml). Further, the “Inhibition of tyrosinase activity (in words)” value in the test with mushroom tyrosinase is reported as “ineffective”.

As for `NCCCC[C@H](N)C(=O)[O-].NCCCC[C@H](N)C(=O)[O-].[Ca+2]` [Ca lysinate (CLY), Ca lysinate], in test [1], the “Fold change/mean FPKM = 2.2 (MITF gene expression)” value is on record as −0.21 and the “MITF gene expression effect (in words)” value was “No effect”. Also, in test [1] (listed as Ca lysinate), the “MITF gene expression effect (in words)” value is reported as “not significantly altered”. For the same molecule, the “Comments (MITF gene expression by PCR)” value with MITF gene expression is on record as “No Effect”.

For the molecule `CCCCCCc1ccc(O)cc1O` [Hexylresorcinol], the “Melanin inhibition, positive control” value in the test on B16-F1 melanocytes (5 μg/ml, three days) is reported as “*Hexylresorcinol (5 μg/ml) was used as a positive control: Melanin inhibition was found fo be 17% of control (p = 0.007) confirming the validation of the protocol”.
